According to patent US20240148821A1, “PHARMACEUTICAL USE OF CYCLIC PEPTIDE COMPOUND” (CHUGAI SEIYAKU KABUSHIKI KAISHA, priority 2021, published 2024):
Numbered stars: 1 amine (or outer) side, 2 acyl side, 3 side chain; on linkers, the order of the positions; unused ones are H or OH. Bridge positions count the residues as written; N and C are the ends. Square brackets hold non-standard residues; d marks the D form. Peptide text beside a SMILES is read from it. * marks the point of attachment. hPhe(3,5-F2-4-CF3) = N[C@@H](CCc1cc(F)c(C(F)(F)F)c(F)c1)C(=O)O; hPhe(3-Cl-4-CF3) = N[C@@H](CCc1ccc(C(F)(F)F)c(Cl)c1)C(=O)O; hPhe(3-F,4-CF3) = N[C@@H](CCc1ccc(C(F)(F)F)c(F)c1)C(=O)O; NEtPhe(4-CF3) = CCN[C@@H](Cc1ccc(C(F)(F)F)cc1)C(=O)O; NMePhe(4-CF3) = CN[C@@H](Cc1ccc(C(F)(F)F)cc1)C(=O)O; NEtPhe(4-Cl) = CCN[C@@H](Cc1ccc(Cl)cc1)C(=O)O; NMePhe(4-Cl) = CN[C@@H](Cc1ccc(Cl)cc1)C(=O)O; NMePhe(4-Me) = CN[C@@H](Cc1ccc(C)cc1)C(=O)O; NMedβ3hAla = C[C@H](CC(=O)[*:2])N(C)[*:1]; NMeNva(5,5-F2) = CN[C@@H](CCC(F)F)C(=O)O; NMeGly(cPent) = CN[C@H](C(=O)O)C1CCCC1; Pro(4,4-F2) = O=C(O)[C@@H]1CC(F)(F)CN1; NMeCha = CN[C@@H](CC1CCCCC1)C(=O)O; Hyp = O=C(O)[C@@H]1C[C@@H](O)CN1; NMeAhp(2) = CCCCC[C@H](NC)C(=O)O; NMeChg = CN[C@H](C(=O)O)C1CCCCC1; NMeI = CC[C@H](C)[C@H](NC)C(=O)O; NMeT = CN[C@H](C(=O)O)[C@@H](C)O; NMeD = CN[C@@H](CC(=O)O)C(=O)O; NMeL = CN[C@@H](CC(C)C)C(=O)O; Chg = N[C@H](C(=O)O)C1CCCCC1; NMeV = CN[C@H](C(=O)O)C(C)C; Azetidin(1-yl) = C1CN(*)C1; Morpholide = C1CN(*)CCO1; NMeA = CN[C@@H](C)C(=O)O; NMeAib = CNC(C)(C)C(=O)O; Nle = CCCC[C@H](N)C(=O)O; Piperidide = C1CCN(*)CC1; Pyrrolidide = C1CCN(*)C1; Ac5c = NC1(C(=O)O)CCCC1; Aze = O=C(O)[C@@H]1CCN1; Ac4c = NC1(C(=O)O)CCC1; NEtG = CCNCC(=O)O; Sar = CNCC(=O)O; OAll = C=CCO*

Key:
[1] = tested on: Human pancreatic cancer cell line AsPC-1 (G12D mutation Kras); assay: AsPC-1 cell growth inhibition (AsPC-1 CGI); format: cell-based; details: read-out: AsPC-1 cell growth inhibition, 50% growth inhibitory concentration (IC50 value); 96 hours, CellTiter-Glo, values classified in ranges
[2] = molecular target: protein-protein interaction between Kras and SOS1 (biotin-tagged human Kras loaded with GDP, His-tagged human SOS1) (Homo sapiens (Human), UniProt P01116, G12D); assay: Protein-protein interaction inhibition between Kras and SOS1 (KrasG12D-SOS PPI) using AlphaScreen; format: biochemical; details: AlphaScreen; biotin-tagged human Kras loaded with GDP, His-tagged human SOS1; read-out: KRAS G12D-SOS PPI IC50;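 note: kras produced in E. coli, Ni-coupled donor beads and streptavidin acceptor beads, excitation 680 nm with emission detected at 520–620 nm via singlet oxygen transfer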

Structure (SMILES) | IC50 [1] | IC50 [2]
CC(C)C[C@@H]1NC(=O)C(C)(C)N(C)C(=O)[C@H](CC(C)C)NC(=O)[C@H](CCc2ccc(C(F)(F)F)c(F)c2)NC(=O)CN(C)C(=O)[C@H](Cc2ccc(Cl)cc2)N(C)C(=O)CN(C)C(=O)CN(C)C(=O)[C@H](C2CCCCC2)NC(=O)[C@H](CC(C)C)N(C)C(=O)C[C@@H](C)N(C)C1=O [Compound 1133] (cyclo([Chg][Sar][Sar][NMePhe(4-Cl)][Sar][hPhe(3-F,4-CF3)]L[NMeAib]L[NMedβ3hAla][NMeL])) | > 500 nM | 56 nM
CC[C@H](C)[C@@H]1NC(=O)[C@H](CC(C)C)N(C)C(=O)C[C@@H](C(=O)N2CCOCC2)N(C)C(=O)[C@H]([C@@H](C)CC)N(C)C(=O)C2(CCCC2)NC(=O)[C@@H]2CCCN2C(=O)[C@H](CCc2ccc(C(F)(F)F)c(Cl)c2)NC(=O)CN(CC)C(=O)[C@H](Cc2ccc(C(F)(F)F)cc2)N(C)C(=O)[C@@H]2CCN2C(=O)[C@H](C)N(C)C1=O [Compound 1151] ([NMeL]I[NMeA][Aze][NMePhe(4-CF3)][NEtG][hPhe(3-Cl-4-CF3)]P[Ac5c][NMeI][NMeD]-Morpholide; lactam N-11) | ≤ 20 nM | 5.2 nM
CC[C@H](C)[C@@H]1NC(=O)[C@H](CC(C)C)N(C)C(=O)C[C@@H](C(=O)N2CCOCC2)N(C)C(=O)[C@H](C2CCCC2)N(C)C(=O)C2(CCCC2)NC(=O)[C@@H]2CCCN2C(=O)[C@H](CCc2ccc(C(F)(F)F)c(F)c2)NC(=O)CN(C)C(=O)[C@H](Cc2ccc(C)cc2)N(C)C(=O)[C@@H]2CCN2C(=O)[C@H](C)N(C)C1=O [Compound 938] ([NMeL]I[NMeA][Aze][NMePhe(4-Me)][Sar][hPhe(3-F,4-CF3)]P[Ac5c][NMeGly(cPent)][NMeD]-Morpholide; lactam N-11) | ≤ 20 nM | 0.69 nM
C=CCOC(=O)C[C@H]1C(=O)NC2(CCCC2)C(=O)N(C)[C@@H](C(C)C)C(=O)N(C)[C@H](C(=O)N2CCCCC2)CC(=O)N(C)[C@@H](C)C(=O)N[C@@H]([C@@H](C)CC)C(=O)N(C)CC(=O)N(C)CC(=O)N(C)[C@@H](CC2CCCCC2)C(=O)N(C)CC(=O)N[C@@H](CCc2ccc(C(F)(F)F)c(Cl)c2)C(=O)N1C [Compound 792] ([NMeA]I[Sar][Sar][NMeCha][Sar][hPhe(3-Cl-4-CF3)][NMeD](OAll)[Ac5c][NMeV][NMeD]-Piperidide; lactam N-11) | > 500 nM | 3.5 nM
CC[C@H](C)[C@@H]1NC(=O)[C@H](CC(C)C)N(C)C(=O)C[C@@H](C(=O)N2CCCCC2)N(C)C(=O)[C@H](C(C)C)N(C)C(=O)C2(CCCC2)NC(=O)[C@@H]2CCCN2C(=O)[C@H](CCc2ccc(C(F)(F)F)c(Cl)c2)NC(=O)CN(C)C(=O)[C@H]([C@@H](C)O)N(C)C(=O)[C@@H]2CCN2C(=O)[C@H](C)N(C)C1=O [Compound 862] ([NMeL]I[NMeA][Aze][NMeT][Sar][hPhe(3-Cl-4-CF3)]P[Ac5c][NMeV][NMeD]-Piperidide; lactam N-11) | > 500 nM | 2.7 nM
CC[C@H](C)[C@@H]1NC(=O)[C@H](CC(C)C)N(C)C(=O)C[C@@H](C(=O)N2CCCC2)N(C)C(=O)[C@H](C2CCCC2)N(C)C(=O)C2(CCCC2)NC(=O)[C@@H]2CCCN2C(=O)[C@H](CCc2ccc(C(F)(F)F)c(F)c2)NC(=O)CN(C)C(=O)[C@H](Cc2ccc(C)cc2)N(C)C(=O)[C@@H]2CCN2C(=O)[C@H](C)N(C)C1=O [Compound 20] ([NMeL]I[NMeA][Aze][NMePhe(4-Me)][Sar][hPhe(3-F,4-CF3)]P[Ac5c][NMeGly(cPent)][NMeD]-Pyrrolidide; lactam N-11) | ≤ 20 nM | 0.76 nM
CC[C@H](C)[C@@H]1NC(=O)[C@H](CC(C)C)N(C)C(=O)C[C@@H](C(=O)N2CCCC2)N(C)C(=O)[C@H]([C@@H](C)CC)N(C)C(=O)C2(CCCC2)NC(=O)[C@@H]2CCCN2C(=O)[C@H](CCc2ccc(C(F)(F)F)c(Cl)c2)NC(=O)CN(C)C(=O)[C@H](Cc2ccc(C)cc2)N(C)C(=O)[C@@H]2CCN2C(=O)[C@H](C)N(C)C1=O [Compound 1645] ([NMeL]I[NMeA][Aze][NMePhe(4-Me)][Sar][hPhe(3-Cl-4-CF3)]P[Ac5c][NMeI][NMeD]-Pyrrolidide; lactam N-11) | ≤ 20 nM | 1 nM
CC[C@H](C)[C@@H]1NC(=O)[C@H](CC(C)C)N(C)C(=O)C[C@@H](C(=O)N2CCCCC2)N(C)C(=O)[C@H](C(C)C)N(C)C(=O)C2(CCCC2)NC(=O)[C@@H]2CCCN2C(=O)[C@H](CCc2ccc(C(F)(F)F)c(Cl)c2)NC(=O)CN(C)C(=O)[C@H](CC2CCCCC2)N(C)C(=O)[C@@H]2CCN2C(=O)[C@@H]2CCN2C1=O [Compound 318] ([NMeL]I[Aze][Aze][NMeCha][Sar][hPhe(3-Cl-4-CF3)]P[Ac5c][NMeV][NMeD]-Piperidide; lactam N-11) | > 500 nM | 19 nM
CCCC[C@@H]1NC(=O)[C@H](CCc2ccc(C(F)(F)F)c(F)c2)NC(=O)CN(C)C(=O)[C@H](Cc2ccc(Cl)cc2)N(CC)C(=O)CN(C)C(=O)CN(C)C(=O)[C@H]([C@@H](C)CC)NC(=O)[C@H](CC(C)C)N(C)C(=O)C[C@@H](C)N(C)C(=O)[C@H](CC(C)C)NC(=O)C(C)(C)N(C)C1=O [Compound 257] (cyclo(I[Sar][Sar][NEtPhe(4-Cl)][Sar][hPhe(3-F,4-CF3)][Nle][NMeAib]L[NMedβ3hAla][NMeL])) | > 500 nM | 97 nM
CC[C@H](C)[C@@H]1NC(=O)[C@H](CC(C)C)N(C)C(=O)C[C@@H](C)N(C)C(=O)[C@H](C2CCCCC2)NC(=O)C(C)(C)N(C)C(=O)[C@H](CC(C)C)NC(=O)[C@H](CCc2ccc(C(F)(F)F)c(F)c2)NC(=O)CN(C)C(=O)[C@H](Cc2ccc(Cl)cc2)N(C)C(=O)CN(C)C(=O)CN(C)C1=O [Compound 897] (cyclo([Chg][NMedβ3hAla][NMeL]I[Sar][Sar][NMePhe(4-Cl)][Sar][hPhe(3-F,4-CF3)]L[NMeAib])) | > 500 nM | 150 nM
CC[C@H](C)[C@@H]1NC(=O)[C@H](CC(C)C)N(C)C(=O)C[C@@H](C)N(C)C(=O)[C@H](C2CCCC2)N(C)C(=O)C2(CCCC2)NC(=O)[C@@H]2CCCN2C(=O)[C@H](CCc2ccc(C(F)(F)F)c(F)c2)NC(=O)CN(C)C(=O)[C@H](Cc2ccc(C)cc2)N(C)C(=O)[C@@H]2CCN2C(=O)[C@H](C)N(C)C1=O [Compound 481] (cyclo([Ac5c][NMeGly(cPent)][NMedβ3hAla][NMeL]I[NMeA][Aze][NMePhe(4-Me)][Sar][hPhe(3-F,4-CF3)]P)) | ≤ 20 nM | 2 nM
CCO[C@@H]1C[C@H]2C(=O)NC3(CCCC3)C(=O)N(C)[C@@H](C3CCCCC3)C(=O)N(C)[C@H](C(=O)N3CCOCC3)CC(=O)N(C)[C@@H](CC(C)C)C(=O)N[C@@H]([C@@H](C)CC)C(=O)N(C)CC(=O)N(C)CC(=O)N(C)[C@@H](CC3CCCCC3)C(=O)N(C)CC(=O)N[C@@H](CCc3cc(F)c(C(F)(F)F)c(F)c3)C(=O)N2C1 [Compound 1290] ([NMeL]I[Sar][Sar][NMeCha][Sar][hPhe(3,5-F2-4-CF3)][Hyp](Et)[Ac5c][NMeChg][NMeD]-Morpholide; lactam N-11) | ≤ 20 nM | 0.63 nM
CC[C@H](C)[C@@H]1NC(=O)[C@H](CC(C)C)N(C)C(=O)C[C@@H](C(=O)N2CCCCC2)N(C)C(=O)[C@H](C(C)C)N(C)C(=O)C2(CCCC2)NC(=O)[C@@H]2CCCN2C(=O)[C@H](CCc2ccc(C(F)(F)F)c(Cl)c2)NC(=O)CN(C)C(=O)[C@H](CCC(F)F)N(C)C(=O)[C@@H]2CCN2C(=O)[C@H](C)N(C)C1=O [Compound 1769] ([NMeL]I[NMeA][Aze][NMeNva(5,5-F2)][Sar][hPhe(3-Cl-4-CF3)]P[Ac5c][NMeV][NMeD]-Piperidide; lactam N-11) | > 500 nM | 11 nM
CC[C@H](C)[C@@H]1NC(=O)[C@H](CC(C)C)N(C)C(=O)C[C@@H](C(=O)N2CCC2)N(C)C(=O)[C@H](C2CCCC2)N(C)C(=O)C2(CCCC2)NC(=O)[C@@H]2CC(F)(F)CN2C(=O)[C@H](CCc2cc(F)c(C(F)(F)F)c(F)c2)NC(=O)CN(C)C(=O)[C@H](CC2CCCCC2)N(C)C(=O)[C@@H]2CCN2C(=O)[C@H](C)N(C)C1=O [Compound 1248] ([NMeL]I[NMeA][Aze][NMeCha][Sar][hPhe(3,5-F2-4-CF3)][Pro(4,4-F2)][Ac5c][NMeGly(cPent)][NMeD]-{Azetidin(1-yl)}; lactam N-11) | ≤ 20 nM | 0.67 nM
CCCCC[C@H]1C(=O)N[C@@H]([C@@H](C)CC)C(=O)N(C)[C@@H](C)C(=O)N2CC[C@H]2C(=O)N(C)[C@@H](Cc2ccc(C)cc2)C(=O)N(C)CC(=O)N[C@@H](CCc2ccc(C(F)(F)F)c(Cl)c2)C(=O)N2CCC[C@H]2C(=O)NC2(CCCC2)C(=O)N(C)[C@@H]([C@@H](C)CC)C(=O)N(C)[C@H](C(=O)N(C)C)CC(=O)N1C [Compound 896] ([NMeAhp(2)]I[NMeA][Aze][NMePhe(4-Me)][Sar][hPhe(3-Cl-4-CF3)]P[Ac5c][NMeI][NMeD]-NMe2; lactam N-11) | ≤ 20 nM | 1.1 nM
CCO[C@@H]1C[C@H]2C(=O)NC3(CCC3)C(=O)N(C)[C@@H]([C@@H](C)CC)C(=O)N(C)[C@H](C)CC(=O)N(C)[C@@H](CC(C)C)C(=O)N[C@@H]([C@@H](C)CC)C(=O)N(C)[C@@H](C)C(=O)N3CC[C@H]3C(=O)N(CC)[C@@H](Cc3ccc(C(F)(F)F)cc3)C(=O)N(C)CC(=O)N[C@@H](CCc3ccc(C(F)(F)F)c(Cl)c3)C(=O)N2C1 [Compound 547] (cyclo([Ac4c][NMeI][NMedβ3hAla][NMeL]I[NMeA][Aze][NEtPhe(4-CF3)][Sar][hPhe(3-Cl-4-CF3)][Hyp](Et))) | ≤ 20 nM | 1 nM
